# Assay results: patent US20220155322A1, “USE OF NATRIURETIC PEPTIDES TO ASSESS AND TREAT ACUTE KIDNEY INJURY” (Mayo Foundation for Medical Education and Research, priority 2019, published 2022)
# Positions of bridges follow the written chain, without caps; N, C: chain ends. Residues, ends and D or L forms follow the SMILES beside them.
# Columns and labels:
# [1] = test system: ischemic AKI model in normal mongrel canines; type: in vivo, canine; details: after ischemia, 16.3 pmol/kg/min
# Method: Ischemic Acute Kidney Injury in Canines: An ischemic AKI model in normal mongrel canines (male, 25-30 kg, n=5 per group) was created with high dose intravenous indomethacin infusion (10 mg/kg with NaHCO3[5 mg/kg] dissolved in 50 ml distilled water) followed by suprarenal ACC (Sandok et al., J Am Soc Nephrol, 196-202, 1992). Briefly, canines were anesthetized with intravenous pentobarbital (15-30 mg/kg) and fentanyl (4-12 μg/kg), intubated, and mechanically ventilated on air with supplemental oxygen, 3 L/minute, 12 cycles/minute (Harvard Apparatus; […], Mass.). The femoral and carotid arteries were accessed for mean arterial pressure (MAP) monitoring and blood sampling. The femoral vein was cannulated for continuous inulin infusion and saline/indomethacin/drug infusions. The left renal artery was attached with a probe for renal blood flow (RBF) measurement and a catheter was placed in the left ureter for passive urine collection. A flow-directed balloon-tipped thermodilution catheter was advanced to the pulmonary artery through the external jugular vein for measurement of cardiac filling pressures and cardiac output (CO). After a 60 minute equilibration, baseline (BL) characteristics were established. […] GFR values were calculated based on inulin clearance. Urinary sodium was measured with pHOx Ultra (Nova Biomedical; Waltham, Mass.).
# [2] = test system: AKI canine kidneys (renal cortex); assay: Renal injury ex vivo analysis (H&E histology and TUNEL); type: in vivo; details: AKI canine kidney cortex, compared to vehicle
# Method: Histology and TUNEL Analysis: Fixed renal tissues were embedded in paraffin. For histology analysis, paraffin-embedded slides in vehicle (n=5) and CRRL269 (n=5) were stained with hematoxylin and eosin (H&E). A renal pathologist who was blinded to the study examined the H&E stained slides. Renal morphologic injuries such as tubular dilation and vacuolization were evaluated. Renal cortical apoptosis in vehicle (n=5) and CRRL269 (n=5) treated dogs were assessed using a TUNEL assay (Promega; Madison, Wis.) followed the protocol provided by the manufacturer. […] DAPI (Vectashield, Vector Laboratories; Burlingame, Calif.) was used to label the nucleus. TUNEL results were analyzed by confocal fluorescence microscopy (Nikon A50R; Melville, N.Y.).
# [3] = test system: human primary renal proximal tubular epithelial cells (HRPTC); assay: Oil immersion induced hypoxia/reoxygenation (H/R) apoptosis, Caspase 3/7 IncuCyte live imaging; type: cell-based; parameters: apoptotic signals in HRPTC after H/R: dose or concentration left out as unconfirmed
# Method: Oil Immersion Induced Hypoxia/Reoxygenation in vitro: HRPTC (ScienCell Research Laboratories; Carlsbad, Calif.) were seeded in 96-well plates and cultured for 1 day until 70-80% confluence. Passages 3-5 were used for experiments. Caspase 3/7 green apoptosis assay agent (Essen BioScience; Ann Arbor, Mich.) was added to the culture medium for detection of apoptosis. Plates were then transferred to a time-lapsed, live imaging system IncuCyte (Essen BioScience) for apoptosis monitoring for a total of 24 hours. H/R in cells was mimicked with mineral oil (Sigma, St Louis, Mo.) immersion (Meldrum et al., J Surg Res, 99:288-293, 2001). Cells were immersed in oil for 2 hours, washed twice, and placed in fresh medium containing vehicle (H/R group) or drugs. ANP, BNP, and CRRL269 were used at concentrations of 10^−8, 10^−7, or 10^−6 M. PKG (an important cGMP binding protein) activating analogue 8-pCPT-cGMP (Sigma; St. Louis, Mo.), which is specific for PKG and has low affinity for phosphodiesterases, was used at concentrations of 10^−6, 10^−5, or 10^−4 M. Cells were treated with 10^−6-, 5×10^−6-, or 1.5×10^−5 M PKG inhibitor KT-5823 (Abcam; Cambridge, Mass.) for 30 minutes before 10^−6 M CRRL269 was added. Cells without H/R stimulation were labeled as the negative control (Neg Ctrl) group. Apoptosis signals (e.g., apoptosis object counts) were analyzed with software provided by IncuCyte.
# [4] = test system: apoptosis pathway genes in HRPTC; assay: Apoptosis pathway PCR array in H/R HRPTC; type: cell-based, human
# Method: (§1) Apoptosis Pathway PCR Array and Caspase7 Real Time PCR: Two groups of HRPTC (vehicle and 10^−6 M CRRL269) that underwent oil induced H/R, and a negative control (Neg Ctrl) group with no H/R stress, were cultured in 6-well plates as described above, and total RNA was collected using the Trizol method (Thermo Fisher Scientific; Waltham, Mass.). RNA was reverse transcribed for cDNA for PCR RT2 array experiments. Apoptosis pathway PCR array (Qiagen; Germantown, Md.) was conducted using the SYBR green (Bio-Rad Laboratories; Hercules, Calif.) method in a Lightcycler 480 (Roche Diagonostics; Indianapolis, Ind.). Raw data were analyzed with the online Qiagen RT2 PCR analysis program. […] A Caspase7 RT-PCR primer (PPH00110C-200, Qiagen) was obtained, and RT-PCR reactions were performed using the SYBR green method in a Lightcycler 480. The B2M gene (primer PPH01094E, Qiagen) was used for normalization.
# [5] = test system: Caspase7 gene; assay: Caspase7 real time PCR in H/R HRPTC; type: cell-based, human; details: H/R with 10^−6 M CRRL269, H/R alone 1.89 fold, normalized to B2M
# Method: as §1
# [6] = HRPTC, H/R, 10^−8, 10^−7 or 10^−6 M
smiles,measurement,setting,value
CC[C@H](C)[C@@H]1NC(=O)[C@H](CCCNC(=N)N)NC(=O)[C@H](CC(=O)O)NC(=O)[C@H](CCSC)NC(=O)[C@H](CCCCN)NC(=O)[C@H](CCCNC(=N)N)NC(=O)CNC(=O)[C@H](Cc2ccccc2)NC(=O)[C@@H](NC(=O)[C@H](CO)NC(=O)[C@H](CO)NC(=O)[C@H](CCCNC(=N)N)NC(=O)[C@H](CCCNC(=N)N)NC(=O)[C@H](CC(C)C)NC(=O)[C@H](CO)NC(=O)[C@H](CCCNC(=N)N)NC(=O)[C@@H]2CCCN2C(=O)[C@H](C)NC(=O)[C@@H](N)[C@@H](C)O)CSSC[C@@H](C(=O)N[C@@H](CC(N)=O)C(=O)N[C@@H](CO)C(=O)N[C@@H](Cc2ccccc2)C(=O)N[C@@H](CCCNC(=N)N)C(=O)N[C@@H](Cc2ccc(O)cc2)C(=O)O)NC(=O)CNC(=O)[C@H](CC(C)C)NC(=O)CNC(=O)[C@H](CO)NC(=O)[C@H](CO)NC(=O)[C@H](CO)NC(=O)[C@H](CO)NC1=O [CRRL269] (H-TAPRSLRRSSCFGRKMDRISSSSGLGCNSFRY-OH; disulfide 11-27),pulmonary capillary wedge pressure (PCWP),[1],reduced
same,right atrial pressure (RAP),[1],reduced
same,renal cortex vacuolization (H&E staining),[2],less vacuolization compared to vehicle
same,renal cortical apoptosis (TUNEL assay),[2],reduced apoptosis
same,apoptotic signals in HRPTC after H/R,"[3]; CRRL269, compared to H/R group alone",significantly reduced
same,anti-apoptotic effect compared to ANP,[3]; [6],more robust anti-apototic effects compared to ANP
same,anti-apoptotic effect in comparison with BNP,[3]; [6],trend of superiority
same,Caspase7 gene down-regulation in PCR array,[4]; 10^−6 M CRRL269,at least two-fold
same,number of apoptosis pathway genes down-regulated at least 2 fold,"[4]; 10^−6 M CRRL269, 84-gene array",8 out of 84
same,Caspase7 gene expression level (RT-PCR),[5],1.25 fold
